Data from publication PMC5053573, “Structure-Based Design of Tetrahydroisoquinoline-7-carboxamides as Selective Discoidin Domain Receptor 1 (DDR1) Inhibitors” (Journal of Medicinal Chemistry, 2016).

How the values were obtained:
Test in all cases: biochemical
Settings in all cases: read-out: %Ctrl @ 1000nM
[1] = target: ABL1(H396P)-phosphorylated (Homo sapiens, UniProt P00519, H396P)
ACVR2B = ACVR2B (Homo sapiens, UniProt Q13705)
AKT2 = AKT2 (Homo sapiens, UniProt P31751)
AURKB = AURKB (Homo sapiens, UniProt Q96GD4)
BMPR2 = BMPR2 (Homo sapiens, UniProt Q13873)
BRSK1 = BRSK1 (Homo sapiens, UniProt Q8TDC3)
CAMK1 = CAMK1 (Homo sapiens, UniProt Q14012)
CDKL5 = CDKL5 (Homo sapiens, UniProt O76039)
EGFR = EGFR (Homo sapiens, UniProt P00533)
EPHA2 = EPHA2 (Homo sapiens, UniProt P29317)
FLT3-autoinhibited = FLT3-autoinhibited (Homo sapiens, UniProt P36888)
GCN2(Kin.Dom.2,S808G) = target: T1, GCN2(Kin.Dom.2,S808G) (Homo sapiens, UniProt Q9P2K8, S808G)
T1 construct: gene EIF2AK4

GRK7 = GRK7 (Homo sapiens, UniProt Q8WTQ7)
HIPK4 = HIPK4 (Homo sapiens, UniProt Q8NE63)
KIT(D816H) = KIT(D816H) (Homo sapiens, UniProt P10721, D816H)
LKB1 = target: T2, LKB1 (Homo sapiens, UniProt Q15831)
T2 construct: gene STK11

MAP4K2 = MAP4K2 (Homo sapiens, UniProt Q12851)
MET = MET (Homo sapiens, UniProt P08581)
MRCKB = target: T3, MRCKB (Homo sapiens, UniProt Q9Y5S2)
T3 construct: gene CDC42BPB

NEK10 = NEK10 (Homo sapiens, UniProt Q6ZWH5)
PDGFRA = PDGFRA (Homo sapiens, UniProt P16234)
PDPK1 = PDPK1 (Homo sapiens, UniProt O15530)
PFTAIRE2 = target: T4, PFTAIRE2 (Homo sapiens, UniProt Q96Q40)
T4 construct: gene CDK15

PFTK1 = target: T5, PFTK1 (Homo sapiens, UniProt O94921)
T5 construct: gene CDK14

PIK3C2B = PIK3C2B (Homo sapiens, UniProt O00750)
PIK3CA(I800L) = PIK3CA(I800L) (Homo sapiens, UniProt P42336, I800L)
PIK4CB = target: T6, PIK4CB (Homo sapiens, UniProt Q9UBF8)
T6 construct: gene PI4KB

PRKCE = PRKCE (Homo sapiens, UniProt Q02156)
PRKG1 = PRKG1 (Homo sapiens, UniProt Q13976)
RIOK1 = RIOK1 (Homo sapiens, UniProt Q9BRS2)
ROS1 = ROS1 (Homo sapiens, UniProt P08922)
SBK1 = SBK1 (Homo sapiens, UniProt Q52WX2)
SIK = target: T7, SIK (Homo sapiens, UniProt P57059)
T7 construct: gene SIK1

SLK = SLK (Homo sapiens, UniProt Q9H2G2)
TAK1 = target: T8, TAK1 (Homo sapiens, UniProt O43318)
T8 construct: gene MAP3K7
T8 sequence (O43318 whole entry): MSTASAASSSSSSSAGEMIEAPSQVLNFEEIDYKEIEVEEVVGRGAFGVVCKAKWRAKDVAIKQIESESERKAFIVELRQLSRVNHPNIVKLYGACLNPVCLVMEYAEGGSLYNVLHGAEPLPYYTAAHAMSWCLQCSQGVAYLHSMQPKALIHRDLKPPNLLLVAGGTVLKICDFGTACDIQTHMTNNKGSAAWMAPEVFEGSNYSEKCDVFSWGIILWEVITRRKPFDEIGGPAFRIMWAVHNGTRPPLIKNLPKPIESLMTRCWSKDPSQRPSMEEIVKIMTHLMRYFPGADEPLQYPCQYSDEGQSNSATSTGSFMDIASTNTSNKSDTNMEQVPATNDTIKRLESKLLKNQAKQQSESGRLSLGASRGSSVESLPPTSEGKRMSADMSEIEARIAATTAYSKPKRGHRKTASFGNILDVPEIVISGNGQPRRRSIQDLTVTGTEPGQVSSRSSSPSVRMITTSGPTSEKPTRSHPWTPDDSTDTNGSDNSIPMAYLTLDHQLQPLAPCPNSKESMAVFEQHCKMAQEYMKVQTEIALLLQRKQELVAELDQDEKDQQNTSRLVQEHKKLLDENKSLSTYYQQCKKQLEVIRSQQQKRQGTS

EPHA2, sequence (P29317 whole entry): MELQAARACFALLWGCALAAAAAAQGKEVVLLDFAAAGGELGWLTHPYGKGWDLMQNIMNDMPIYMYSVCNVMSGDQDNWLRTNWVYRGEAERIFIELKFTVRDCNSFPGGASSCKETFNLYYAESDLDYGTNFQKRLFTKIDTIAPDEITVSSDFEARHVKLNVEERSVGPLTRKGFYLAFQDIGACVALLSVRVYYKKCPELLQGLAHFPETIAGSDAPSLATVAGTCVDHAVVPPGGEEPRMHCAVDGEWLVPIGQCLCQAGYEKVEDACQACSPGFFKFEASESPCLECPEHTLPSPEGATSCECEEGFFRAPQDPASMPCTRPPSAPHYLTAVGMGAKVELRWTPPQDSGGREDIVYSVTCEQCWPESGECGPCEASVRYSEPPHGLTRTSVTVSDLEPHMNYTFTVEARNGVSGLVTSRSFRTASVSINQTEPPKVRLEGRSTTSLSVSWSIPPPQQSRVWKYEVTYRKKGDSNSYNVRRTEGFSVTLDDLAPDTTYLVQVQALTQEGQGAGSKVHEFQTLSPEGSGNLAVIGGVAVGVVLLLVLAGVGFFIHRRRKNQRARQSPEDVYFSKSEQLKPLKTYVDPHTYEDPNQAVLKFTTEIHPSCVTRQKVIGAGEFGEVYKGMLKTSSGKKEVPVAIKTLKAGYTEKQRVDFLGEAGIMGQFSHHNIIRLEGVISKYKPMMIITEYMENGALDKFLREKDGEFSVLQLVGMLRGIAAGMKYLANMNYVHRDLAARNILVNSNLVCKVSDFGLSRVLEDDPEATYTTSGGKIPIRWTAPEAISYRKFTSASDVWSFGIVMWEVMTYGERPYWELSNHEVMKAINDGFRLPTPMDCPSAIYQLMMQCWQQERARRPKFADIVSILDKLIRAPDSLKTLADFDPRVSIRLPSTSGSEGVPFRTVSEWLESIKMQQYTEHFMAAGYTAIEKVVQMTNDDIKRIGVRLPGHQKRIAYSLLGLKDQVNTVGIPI
FLT3-autoinhibited, sequence (P36888 whole entry): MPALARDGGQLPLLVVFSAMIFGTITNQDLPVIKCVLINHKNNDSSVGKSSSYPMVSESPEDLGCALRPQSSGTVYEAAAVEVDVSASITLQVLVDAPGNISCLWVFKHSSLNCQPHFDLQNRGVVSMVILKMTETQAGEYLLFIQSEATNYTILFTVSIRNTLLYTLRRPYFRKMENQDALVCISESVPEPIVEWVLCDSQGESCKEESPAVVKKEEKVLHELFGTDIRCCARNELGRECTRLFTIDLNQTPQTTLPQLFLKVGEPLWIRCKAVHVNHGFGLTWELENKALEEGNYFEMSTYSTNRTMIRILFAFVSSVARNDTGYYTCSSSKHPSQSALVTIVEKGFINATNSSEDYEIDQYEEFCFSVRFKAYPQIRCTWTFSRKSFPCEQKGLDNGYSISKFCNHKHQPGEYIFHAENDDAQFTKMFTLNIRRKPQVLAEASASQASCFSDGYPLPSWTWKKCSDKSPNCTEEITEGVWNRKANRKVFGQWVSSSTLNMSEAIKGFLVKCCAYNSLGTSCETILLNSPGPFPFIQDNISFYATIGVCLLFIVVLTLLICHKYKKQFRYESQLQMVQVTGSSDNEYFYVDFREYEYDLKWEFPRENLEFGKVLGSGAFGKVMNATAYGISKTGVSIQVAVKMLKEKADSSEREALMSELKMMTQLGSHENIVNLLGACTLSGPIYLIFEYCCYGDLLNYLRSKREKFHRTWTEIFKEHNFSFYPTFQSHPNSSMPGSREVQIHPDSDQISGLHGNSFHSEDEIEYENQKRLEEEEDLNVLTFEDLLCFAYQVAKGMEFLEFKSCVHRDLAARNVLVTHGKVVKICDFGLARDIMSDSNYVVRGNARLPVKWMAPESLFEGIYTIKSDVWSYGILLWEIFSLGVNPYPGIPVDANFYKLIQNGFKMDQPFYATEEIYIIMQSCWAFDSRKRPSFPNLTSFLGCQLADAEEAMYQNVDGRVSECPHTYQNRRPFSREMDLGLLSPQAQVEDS
T3 sequence (Q9Y5S2 whole entry): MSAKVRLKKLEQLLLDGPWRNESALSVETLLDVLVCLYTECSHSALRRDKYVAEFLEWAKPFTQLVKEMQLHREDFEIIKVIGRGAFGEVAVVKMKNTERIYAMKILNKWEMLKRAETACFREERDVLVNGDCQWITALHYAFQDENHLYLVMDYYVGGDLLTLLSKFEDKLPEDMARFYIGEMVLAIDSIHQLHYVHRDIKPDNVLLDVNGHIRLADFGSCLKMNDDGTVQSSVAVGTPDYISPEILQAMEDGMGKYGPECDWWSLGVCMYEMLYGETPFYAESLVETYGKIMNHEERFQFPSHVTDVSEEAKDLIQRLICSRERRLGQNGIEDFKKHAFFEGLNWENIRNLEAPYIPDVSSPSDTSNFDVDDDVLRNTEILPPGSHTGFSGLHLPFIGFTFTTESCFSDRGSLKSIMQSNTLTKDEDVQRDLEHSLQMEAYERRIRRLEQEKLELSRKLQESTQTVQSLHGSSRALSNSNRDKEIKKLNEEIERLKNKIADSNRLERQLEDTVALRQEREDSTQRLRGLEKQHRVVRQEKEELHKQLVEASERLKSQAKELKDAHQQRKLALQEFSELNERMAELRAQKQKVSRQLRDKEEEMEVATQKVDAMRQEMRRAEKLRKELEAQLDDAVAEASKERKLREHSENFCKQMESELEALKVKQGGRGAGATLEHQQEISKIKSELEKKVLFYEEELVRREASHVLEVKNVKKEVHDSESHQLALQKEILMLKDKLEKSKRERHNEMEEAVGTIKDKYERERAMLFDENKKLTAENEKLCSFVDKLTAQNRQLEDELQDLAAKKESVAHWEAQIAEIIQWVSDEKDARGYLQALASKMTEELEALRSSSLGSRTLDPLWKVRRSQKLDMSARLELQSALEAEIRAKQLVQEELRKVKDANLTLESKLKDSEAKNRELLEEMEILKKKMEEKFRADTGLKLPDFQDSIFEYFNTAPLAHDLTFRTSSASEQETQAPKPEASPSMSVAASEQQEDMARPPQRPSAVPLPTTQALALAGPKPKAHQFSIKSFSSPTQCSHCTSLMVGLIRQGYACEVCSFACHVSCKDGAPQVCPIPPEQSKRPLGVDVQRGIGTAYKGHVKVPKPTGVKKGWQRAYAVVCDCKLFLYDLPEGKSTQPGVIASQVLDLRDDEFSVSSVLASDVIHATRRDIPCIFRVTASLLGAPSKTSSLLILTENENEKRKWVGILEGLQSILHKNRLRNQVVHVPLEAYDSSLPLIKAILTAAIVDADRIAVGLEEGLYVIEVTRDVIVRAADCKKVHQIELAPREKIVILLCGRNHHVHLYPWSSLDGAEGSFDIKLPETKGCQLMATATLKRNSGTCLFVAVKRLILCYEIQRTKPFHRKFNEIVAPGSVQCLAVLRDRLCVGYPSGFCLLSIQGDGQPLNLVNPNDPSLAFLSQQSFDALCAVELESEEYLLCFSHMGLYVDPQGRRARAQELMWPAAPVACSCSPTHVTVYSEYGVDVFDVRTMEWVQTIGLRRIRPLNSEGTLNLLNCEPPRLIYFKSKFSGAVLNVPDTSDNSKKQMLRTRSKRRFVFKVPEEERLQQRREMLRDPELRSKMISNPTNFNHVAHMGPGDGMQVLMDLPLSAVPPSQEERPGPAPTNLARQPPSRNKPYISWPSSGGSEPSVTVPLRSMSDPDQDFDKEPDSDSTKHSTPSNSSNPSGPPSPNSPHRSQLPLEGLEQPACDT
ACVR2B, sequence (Q13705 whole entry): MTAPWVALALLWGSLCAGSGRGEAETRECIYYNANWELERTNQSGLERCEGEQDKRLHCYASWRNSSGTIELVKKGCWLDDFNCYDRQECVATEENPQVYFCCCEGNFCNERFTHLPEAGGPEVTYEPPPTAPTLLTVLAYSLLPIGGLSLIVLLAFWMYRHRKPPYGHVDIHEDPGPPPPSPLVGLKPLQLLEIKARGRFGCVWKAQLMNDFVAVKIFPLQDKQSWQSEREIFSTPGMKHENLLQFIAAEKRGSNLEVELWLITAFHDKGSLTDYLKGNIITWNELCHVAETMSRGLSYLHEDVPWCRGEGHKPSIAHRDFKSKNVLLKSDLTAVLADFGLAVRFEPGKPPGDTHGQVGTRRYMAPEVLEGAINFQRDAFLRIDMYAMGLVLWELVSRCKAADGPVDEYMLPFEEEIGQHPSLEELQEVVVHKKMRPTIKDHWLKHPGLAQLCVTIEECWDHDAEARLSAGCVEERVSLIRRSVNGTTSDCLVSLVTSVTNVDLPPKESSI

Work on `Cc1cn(-c2cc(NC(=O)c3ccc4c(c3)CN(c3cncnc3)C[C@@H]4C)cc(C(F)(F)F)c2)cn1` [Compound 6j] yielded a remaining activity at 1 µM [1] of 100%, a remaining activity at 1 µM (ACVR2B) of 93% and a remaining activity at 1 µM (AKT2) of 100%. It also gave a remaining activity at 1 µM (AURKB) of 98%, a remaining activity at 1 µM (BMPR2) of 100% and a remaining activity at 1 µM (BRSK1) of 98%. It also gave a remaining activity at 1 µM (CAMK1) of 84%, a remaining activity at 1 µM (CDKL5) of 100% and a remaining activity at 1 µM (EGFR) of 94%. For the same compound, the remaining activity at 1 µM (EPHA2) was 65%, the remaining activity at 1 µM (FLT3-autoinhibited) was 100% and the remaining activity at 1 µM (GCN2(Kin.Dom.2,S808G)) was 100%. The remaining activity at 1 µM (GRK7) was 94%, the remaining activity at 1 µM (HIPK4) was 87% and the remaining activity at 1 µM (KIT(D816H)) was 100%. The remaining activity at 1 µM (LKB1) was 77%, the remaining activity at 1 µM (MAP4K2) was 93% and the remaining activity at 1 µM (MET) was 100%. The remaining activity at 1 µM (MRCKB) was 94%, the remaining activity at 1 µM (NEK10) was 100% and the remaining activity at 1 µM (PDGFRA) was 100%. For the same compound, the remaining activity at 1 µM (PDPK1) was 84%, the remaining activity at 1 µM (PFTAIRE2) was 86% and the remaining activity at 1 µM (PFTK1) was 94%. For the same compound, the remaining activity at 1 µM (PIK3C2B) was 100%, the remaining activity at 1 µM (PIK3CA(I800L)) was 100% and the remaining activity at 1 µM (PIK4CB) was 95%. The remaining activity at 1 µM (PRKCE) was 100%, the remaining activity at 1 µM (PRKG1) was 81% and the remaining activity at 1 µM (RIOK1) was 100%. The remaining activity at 1 µM (ROS1) was 86%, the remaining activity at 1 µM (SBK1) was 100% and the remaining activity at 1 µM (SIK) was 84%. It also gave a remaining activity at 1 µM (SLK) of 71% and a remaining activity at 1 µM (TAK1) of 93%.
